# Legend:
# Huh-7 [1] = test: Inhibition of HCV genotype-1a NS5A infected in human HuH7 cells by luciferase reporter gene assay; type: cell-based; settings: Hepatitis C virus subtype 1a
# [2] = test system: T1, Nonstructural protein 5A (Hepatitis C virus), Q5L478 [Y93H]; test: Inhibition of HCV genotype-1a NS5A Y93H mutant infected in human HuH7 cells by luciferase reporter gene assay; type: cell-based; settings: Hepatitis C virus subtype 1a; Huh-7
# T1 sequence (whole entry): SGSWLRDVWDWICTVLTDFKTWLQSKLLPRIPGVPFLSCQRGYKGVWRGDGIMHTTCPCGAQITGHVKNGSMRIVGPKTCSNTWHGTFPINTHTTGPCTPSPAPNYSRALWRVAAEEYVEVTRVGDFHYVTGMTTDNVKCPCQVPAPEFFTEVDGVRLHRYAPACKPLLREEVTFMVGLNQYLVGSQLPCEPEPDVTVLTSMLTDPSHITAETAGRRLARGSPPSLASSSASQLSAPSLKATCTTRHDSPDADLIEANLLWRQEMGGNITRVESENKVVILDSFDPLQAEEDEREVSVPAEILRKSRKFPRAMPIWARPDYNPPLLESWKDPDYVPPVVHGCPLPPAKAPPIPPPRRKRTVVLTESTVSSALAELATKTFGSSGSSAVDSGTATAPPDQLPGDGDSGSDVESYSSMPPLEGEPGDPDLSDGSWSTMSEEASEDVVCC
# [3] = Selectivity ratio for EC90 for HCV genotype-2b NS5A harboring methionine at position 31 to EC90 for HCV genotype-1a NS5A
# Huh-7 [4] = test: Inhibition of HCV genotype-2b NS5A harboring methionine at position 31 infected in human HuH7 cells by luciferase reporter gene assay; type: cell-based; settings: Hepatitis C virus subtype 2b
# [5] = test system: Hepatitis C virus subtype 1a; test: Selectivity ratio for EC90 for HCV genotype-1a NS5A Y93H mutant to EC90 for HCV genotype-1a NS5A
# Huh-7 [6] = test: Inhibition of HCV genotype-3a NS5A infected in human HuH7 cells by luciferase reporter gene assay; type: cell-based; settings: Hepatitis C virus subtype 3a
# Huh-7 [7] = test: Inhibition of HCV genotype-4a NS5A infected in human HuH7 cells by luciferase reporter gene assay; type: cell-based; settings: Hepatitis C virus subtype 4a
# [8] = test system: Nonstructural protein 5A (Hepatitis C virus), Q5L478 [UNDEFINED MUTATION]; test: Inhibition of HCV genotype-1a NS5A L31V mutant infected in human HuH7 cells by luciferase reporter gene assay; type: cell-based; settings: Hepatitis C virus subtype 1a; Huh-7
Compound,EC90 (Huh-7 [1]) [nM],EC90 [2] [nM],Selectivity ratio [3],EC90 (Huh-7 [4]) [nM],Selectivity ratio [5],EC90 (Huh-7 [6]) [nM],EC90 (Huh-7 [7]) [nM],EC90 [8] [nM]
COC(=O)N[C@H](C(=O)N1CCC[C@H]1c1ncc(-c2ccc3c(c2)OC(c2ccc(C4CC4)s2)n2c-3cc3cc(-c4cnc([C@@H]5CCCN5C(=O)[C@@H](NC(=O)OC)C(C)C)[nH]4)ccc32)[nH]1)C(C)C (some centres not stated),0.003,1.2,117,0.35,400,,,
CCOc1cccc([C@@H]2Oc3cc(-c4cnc([C@@H]5CCCN5C(=O)[C@@H](NC(=O)OC)C(C)C)[nH]4)ccc3-c3cc4cc(-c5cnc([C@@H]6CCCN6C(=O)[C@@H](NC(=O)OC)C(C)C)[nH]5)ccc4n32)c1,0.02,16,1100,22,800,,,
COC(=O)N[C@H](C(=O)N1CCC[C@H]1c1ncc(-c2ccc3c(c2)OC(c2ccc(Cl)s2)n2c-3cc3cc(-c4cnc([C@@H]5CCCN5C(=O)[C@@H](NC(=O)OC)C(C)C)[nH]4)ccc32)[nH]1)C(C)C (mixture of isomers),0.02,4,50,1,200,,,
COC(=O)N[C@H](C(=O)N1CCC[C@H]1c1ncc(-c2cc(F)c3c(c2)OC(c2cc(C)c(C4CC4)s2)n2c-3cc3cc(-c4cnc([C@@H]5CCCN5C(=O)[C@@H](NC(=O)OC)C(C)C)[nH]4)ccc32)[nH]1)C(C)C (some centres not stated),0.002,1.7,,0.88,,0.004,0.002,0.009
COC(=O)N[C@H](C(=O)N1CCC[C@H]1c1ncc(-c2cc(F)c3c(c2)O[C@@H](c2ccc4c(c2)OCCC4)n2c-3cc3cc(-c4cnc([C@@H]5CCCN5C(=O)[C@@H](NC(=O)OC)C(C)C)[nH]4)ccc32)[nH]1)C(C)C,0.003,0.5,100,0.3,167,,,
COC(=O)N[C@H](C(=O)N1CCC[C@H]1c1ncc(-c2cc(F)c3c(c2)OC(c2cc4c(s2)CCC4)n2c-3cc3cc(-c4cnc([C@@H]5CCCN5C(=O)[C@@H](NC(=O)OC)C(C)C)[nH]4)ccc32)[nH]1)C(C)C (some centres not stated),0.003,0.26,,0.24,,0.007,0.005,0.003
COC(=O)N[C@H](C(=O)N1CCC[C@H]1c1ncc(-c2cc(F)c3c(c2)OC(c2cnc(C(C)C)s2)n2c-3cc3cc(-c4cnc([C@@H]5C[C@H]6C[C@H]6N5C(=O)[C@@H](NC(=O)OC)C(C)C)[nH]4)ccc32)[nH]1)C(C)C (some centres not stated),0.003,0.028,,0.23,,0.006,0.006,0.008
CCOc1cccc([C@@H]2Oc3cc(-c4cnc([C@@H]5CCCN5C(=O)[C@@H](NC(=O)OC)C(C)C)[nH]4)cc(F)c3-c3cc4cc(-c5cnc([C@@H]6CCCN6C(=O)[C@@H](NC(=O)OC)C(C)C)[nH]5)ccc4n32)c1,0.01,2,800,8,200,,,
COC(=O)N[C@H](C(=O)N1CCC[C@H]1c1ncc(-c2cc(F)c3c(c2)OC(c2ccc(C(C)C)s2)n2c-3cc3cc(-c4cnc([C@@H]5CCCN5C(=O)[C@@H](NC(=O)OC)C(C)C)[nH]4)ccc32)[nH]1)C(C)C (some centres not stated),0.002,0.13,,0.52,,0.001,0.003,0.01
CCc1ncc(C2Oc3cc(-c4cnc([C@@H]5CCCN5C(=O)[C@@H](NC(=O)OC)C(C)C)[nH]4)cc(F)c3-c3cc4cc(-c5cnc([C@@H]6CCCN6C(=O)[C@@H](NC(=O)OC)C(C)C)[nH]5)ccc4n32)s1 (some centres not stated),0.004,0.14,,0.097,,0.009,0.011,0.048
CCc1ccc([C@@H]2Oc3cc(-c4cnc([C@@H]5CCCN5C(=O)[C@@H](NC(=O)OC)C(C)C)[nH]4)ccc3-c3cc4cc(-c5cnc([C@@H]6CCCN6C(=O)[C@@H](NC(=O)OC)C(C)C)[nH]5)ccc4n32)s1,0.005,3.4,50,0.25,680,,,
COC(=O)N[C@H](C(=O)N1CCC[C@H]1c1ncc(-c2cc(F)c3c(c2)OC(c2cc4c(s2)CCCC4)n2c-3cc3cc(-c4cnc([C@@H]5CCCN5C(=O)[C@@H](NC(=O)OC)C(C)C)[nH]4)ccc32)[nH]1)C(C)C (some centres not stated),0.005,0.31,,0.61,,0.02,0.008,0.027
COC(=O)N[C@H](C(=O)N1CCC[C@H]1c1ncc(-c2cc(F)c3c(c2)OC(c2cc4c(s2)CCC4)n2c-3cc3cc(-c4cnc([C@@H]5C[C@H]6C[C@H]6N5C(=O)[C@@H](NC(=O)OC)C(C)C)[nH]4)ccc32)[nH]1)C(C)C (some centres not stated),0.006,0.2,,0.67,,0.012,0.005,0.015
COC(=O)N[C@H](C(=O)N1CCC[C@H]1c1ncc(-c2cc(F)c3c(c2)OC(c2ccc(C(=O)N(C)C)s2)n2c-3cc3cc(-c4cnc([C@@H]5CCCN5C(=O)[C@@H](NC(=O)OC)C(C)C)[nH]4)ccc32)[nH]1)C(C)C (some centres not stated),0.014,0.47,,0.45,,0.12,0.024,0.035
COC(=O)N[C@H](C(=O)N1CCC[C@H]1c1ncc(-c2cc(F)c3c(c2)OC(c2cnc(C4(C)CC4)s2)n2c-3cc3cc(-c4cnc([C@@H]5C[C@H]6C[C@H]6N5C(=O)[C@@H](NC(=O)OC)C(C)C)[nH]4)ccc32)[nH]1)C(C)C (some centres not stated),0.005,0.02,,0.18,,0.009,0.005,0.007
COCc1ccc(C2Oc3cc(-c4cnc([C@@H]5CCCN5C(=O)[C@@H](NC(=O)OC)C(C)C)[nH]4)cc(F)c3-c3cc4cc(-c5cnc([C@@H]6CCCN6C(=O)[C@@H](NC(=O)OC)C(C)C)[nH]5)ccc4n32)s1 (some centres not stated),0.005,0.22,,0.54,,0.016,0.009,0.049
COCc1ncc(C2Oc3cc(-c4cnc([C@@H]5CCCN5C(=O)[C@@H](NC(=O)OC)C(C)C)[nH]4)cc(F)c3-c3cc4cc(-c5cnc([C@@H]6CCCN6C(=O)[C@@H](NC(=O)OC)C(C)C)[nH]5)ccc4n32)s1 (some centres not stated),0.002,0.04,,0.12,,0.007,0.003,0.017
COC(=O)N[C@H](C(=O)N1CCC[C@H]1c1ncc(-c2cc(F)c3c(c2)OC(c2ccc(C(F)F)s2)n2c-3cc3cc(-c4cnc([C@@H]5CCCN5C(=O)[C@@H](NC(=O)OC)C(C)C)[nH]4)ccc32)[nH]1)C(C)C (some centres not stated),0.002,0.14,,0.26,,0.007,0.005,0.016
COC(=O)N[C@H](C(=O)N1CCC[C@H]1c1ncc(-c2cc(F)c3c(c2)OC(c2cnc(C4(C)CC4)s2)n2c-3cc3cc(-c4cnc([C@@H]5CCCN5C(=O)[C@@H](NC(=O)OC)C(C)C)[nH]4)ccc32)[nH]1)C(C)C (some centres not stated),0.017,0.38,,0.68,,0.046,0.027,0.065
COC(=O)N[C@H](C(=O)N1CCC[C@H]1c1ncc(-c2cc(F)c3c(c2)OC(c2cnc(CC(F)(F)F)s2)n2c-3cc3cc(-c4cnc([C@@H]5CCCN5C(=O)[C@@H](NC(=O)OC)C(C)C)[nH]4)ccc32)[nH]1)C(C)C (some centres not stated),0.005,0.18,,0.22,,0.015,0.013,0.05
COC(=O)N[C@H](C(=O)N1CCC[C@H]1c1ncc(-c2cc(F)c3c(c2)OC(c2ccsc2)n2c-3cc3cc(-c4cnc([C@@H]5CCCN5C(=O)[C@@H](NC(=O)OC)C(C)C)[nH]4)ccc32)[nH]1)C(C)C (some centres not stated),0.002,0.59,,3.7,,0.013,0.01,0.13
COC(=O)N[C@H](C(=O)N1CCC[C@H]1c1ncc(-c2cc(F)c3c(c2)OC(c2csc(C4CC4)c2)n2c-3cc3cc(-c4cnc([C@@H]5CCCN5C(=O)[C@@H](NC(=O)OC)C(C)C)[nH]4)ccc32)[nH]1)C(C)C (some centres not stated),0.002,0.26,,0.88,,0.007,0.003,0.06
COC(=O)N[C@H](C(=O)N1CCC[C@H]1c1ncc(-c2cc(F)c3c(c2)OC(c2sc(C(C)C)nc2C)n2c-3cc3cc(-c4cnc([C@@H]5CCCN5C(=O)[C@@H](NC(=O)OC)C(C)C)[nH]4)ccc32)[nH]1)C(C)C (some centres not stated),0.004,12.5,,> 1.7,,0.034,0.009,0.36

# Source: ChEMBL document CHEMBL3877294, “Discovery of Ruzasvir (MK-8408): A Potent, Pan-Genotype HCV NS5A Inhibitor with Optimized Activity against Common Resistance-Associated Polymorphisms” (J Med Chem, 2017)
